This passage reports fold increase in Dox EC50 and EC50 results from PubChem BioAssay AID844 (SRMLSC, 2007).

The experiment deals with MRP1 cells, doxorubicin viability shift, 10 uM compound. The experiment is described as follows: viability protection against doxorubicin, MRP-1 line – cell-based, doxorubicin EC50 shift, dose response (AID 844). The note with it: for EC50: measured here: doxorubicin EC50 with compound.

Active and inactive are the calls of the source. How the calls were made is not given here.

In general, EC50 refers to the concentration that produces a half-maximal response. For the compound `CCn1c(COc2ccc(C)cc2)nnc1SCc1nc2ccccc2[nH]1`, the fold increase in Dox EC50 is 0.88 (inactive) and the EC50 is 4.76 µM.

Take `Cc1noc(/C=C/N(C)C)c1S(=O)(=O)N1CCCC(C(=O)NCc2ccc(F)cc2)C1` (stereo not given): the fold increase in Dox EC50 was 1.15 (inactive) and the EC50 was determined as 6.2 µM.

Regarding `Cc1nnc(NC(=O)c2c(F)cccc2F)s1`, the fold increase in Dox EC50 was 1.23 (inactive) and the EC50 was found to be 6.63 µM.

`O=C(Cn1c(=O)c2c(ncn2Cc2ccccc2)n(Cc2ccccc2)c1=O)N1CCc2ccccc21`: the fold increase in Dox EC50 was 1.07 (inactive) and the EC50 turned out to be 5.76 µM.

Take `O=c1oc(-c2cc3ccccc3o2)nc2sc3c(c12)CCCC3`: the fold increase in Dox EC50 was 1.17 (inactive) and the EC50 was 6.32 µM.

Consider `O=C(NCc1ccc(Cl)cc1)C(=O)NCC(c1ccco1)N1CCOCC1` (stereo not given), for which the fold increase in Dox EC50 is 1.25 (inactive) and the EC50 worked out at 6.77 µM.

As to `CCNc1ccc(C(=O)OCC(=O)c2cc(C)n(Cc3ccc4c(c3)OCO4)c2C)cc1[N+](=O)[O-]`, the fold increase in Dox EC50 is 1.06 (inactive) and the EC50 was 5.74 µM.

`CCc1nnc(NC(=O)c2ccc(S(=O)(=O)NCC(C)C)cc2)s1`: the fold increase in Dox EC50 is 0.53 (inactive) and the EC50 was 2.88 µM.

Consider `Cc1ccc2nc(/N=C(\N)NC(=O)N3c4ccccc4Sc4ccccc43)nc(C)c2c1`, for which the fold increase in Dox EC50 was 1.94 and the EC50 amounted to 10.5 µM.

Regarding `O=C(CN1C(=O)S/C(=C\c2ccc(Cl)cc2)C1=O)NNC(=O)c1ccccc1O`, the fold increase in Dox EC50 was 1.05 (inactive) and the EC50 was 5.65 µM.

Regarding `CC(C)Cc1nnc(NC(=O)CSc2ncn[nH]2)s1`, the fold increase in Dox EC50 was 0.9 (inactive) and the EC50 was 4.87 µM.

As to `Cc1ccc(C(=O)CSc2n[nH]c(-c3ccco3)n2)cc1C`, the fold increase in Dox EC50 was 0.74 (inactive) and the EC50 worked out at 3.97 µM.

`O=C(N/N=C/c1ccc(-c2ccc([N+](=O)[O-])cc2)o1)C(O)c1ccccc1` (stereo not given): the fold increase in Dox EC50 was 0.74 (inactive) and the EC50 was determined as 3.97 µM.

As to `Cc1cccc2cc(CN(Cc3cccs3)S(=O)(=O)c3ccc4c(c3)OCCO4)c(=O)[nH]c12`, the fold increase in Dox EC50 is 1.47 (inactive) and the EC50 worked out at 7.94 µM.

Take `COc1ccccc1-c1nnc(SC2CCc3ccccc3NC2=O)s1` (stereo not given): the fold increase in Dox EC50 was 0.55 (inactive) and the EC50 was found to be 2.98 µM.

In the case of `CCOC(=O)c1cc(-c2ccccc2)sc1NC(=O)C(C)Sc1nnc(C)s1` (stereo not given), the fold increase in Dox EC50 is 0.53 (inactive) and the EC50 turned out to be 2.87 µM.

In the case of `Cc1noc(/C=C/N(C)C)c1S(=O)(=O)N1CCCC(C(=O)NC2CCCCC2)C1` (stereo not given), the fold increase in Dox EC50 was 0.97 (inactive) and the EC50 was found to be 5.23 µM.

On to `COc1ccccc1NC(=O)c1sc2nc(-c3ccco3)ccc2c1N`, for which the fold increase in Dox EC50 was 0.85 (inactive) and the EC50 amounted to 4.61 µM.

For the compound `CCOC(=O)N1CCN(c2nc(-c3cccc(OC)c3)cc(C(F)(F)F)n2)CC1`, the fold increase in Dox EC50 was 1.11 (inactive) and the EC50 came to 6.02 µM.

For `Cc1ccc(S(=O)(=O)N2CCC(C(=O)N[C@@H](C)C(=O)NC3CCCCC3)CC2)cc1`, the fold increase in Dox EC50 is 0.88 (inactive) and the EC50 amounted to 4.73 µM.

In the case of `N#Cc1nc(COc2ccccc2)oc1N1CCCC1`, the fold increase in Dox EC50 is 0.77 (inactive) and the EC50 turned out to be 4.13 µM.

In the case of `Cc1ccc(-c2noc(C3CCCN(S(=O)(=O)c4ccc5ccccc5c4)C3)n2)o1` (stereo not given), the fold increase in Dox EC50 is 1.58 and the EC50 was 8.55 µM.

Regarding `COc1ccc(OCc2nnc(SCC(=O)N3c4ccccc4Sc4ccc(Cl)cc43)o2)cc1`, the fold increase in Dox EC50 is 1.1 (inactive) and the EC50 amounted to 5.92 µM.

For the compound `COc1ccc(-c2c(C#N)c(N)nc3sc(C(=O)c4ccccc4)c(N)c23)cc1`, the fold increase in Dox EC50 was 0.34 (inactive) and the EC50 is 1.86 µM.

On to `O=C(NCc1ccc(Cl)cc1)C(=O)NCC1OCCN1C(=O)c1cccs1` (stereo not given), for which the fold increase in Dox EC50 is 1.33 (inactive) and the EC50 amounted to 7.17 µM.

Take `CCOC(=O)N1CCN(C(=O)CSc2nnc(COc3ccc(Cl)cc3)o2)CC1`: the fold increase in Dox EC50 was 1.03 (inactive) and the EC50 came out at 5.55 µM.

For the compound `Cc1cccc2c3nc4ccccc4nc3n(CCCN3C(=O)c4ccccc4C3=O)c12`, the fold increase in Dox EC50 was 0.13 (inactive) and the EC50 worked out at 0.717 µM.

Consider `CCOC(=O)c1cnn(-c2ccccn2)c1N`, for which the fold increase in Dox EC50 was 0.92 (inactive) and the EC50 was found to be 4.94 µM.

Consider `CC(CCc1ccccc1)NC(=O)c1nnc(Cc2ccc(Cl)cc2)o1` (stereo not given), for which the fold increase in Dox EC50 was 1.13 (inactive) and the EC50 amounted to 6.1 µM.

Consider `O=C(Nc1nc(-c2cccc([N+](=O)[O-])c2)cs1)C(c1ccccc1)c1ccccc1`, for which the fold increase in Dox EC50 was 1.69 and the EC50 was 9.1 µM.

Regarding `CSC1=NP(=S)(SC)N2CCCC2=C1C#N` (stereo not given), the fold increase in Dox EC50 was 0.97 (inactive) and the EC50 stood at 5.24 µM.

As to `CCOc1ccc(-c2nc(C#N)c(NCC(C)C)o2)cc1`, the fold increase in Dox EC50 is 1.19 (inactive) and the EC50 worked out at 6.4 µM.

Turning to `O=C1NC(=Nc2ccc(Cl)cc2)SC1Cc1cc(Cl)ccc1Cl` (stereo not given), the fold increase in Dox EC50 is 1.09 (inactive) and the EC50 came out at 5.86 µM.

`COc1ccc(NC(=O)CCCC2CCCCC2)cc1S(=O)(=O)N1CCCCC1`: the fold increase in Dox EC50 was 1.68 and the 50% effective concentration (EC50) was 9.05 µM.

As for `COC(=O)c1ccc(NC(=O)C(=O)N2CCN(C(=S)Nc3cccc(OC)c3)CC2)cc1`, the fold increase in Dox EC50 was 1.28 (inactive) and the EC50 was 6.93 µM.

`Cc1c(OCC(=O)OC(C)(C)C)ccc2c3c(c(=O)oc12)CCC3`: the fold increase in Dox EC50 is 1.04 (inactive) and the EC50 worked out at 5.59 µM.

For `Cc1nnc(NC(=O)c2ccco2)s1`, the fold increase in Dox EC50 is 1.16 (inactive) and the EC50 was 6.28 µM.

Regarding `O=C(OC1CCc2ccccc2C1=O)c1ccccc1O` (stereo not given), the fold increase in Dox EC50 was 0.69 (inactive) and the EC50 stood at 3.73 µM.

`O=c1cc(CNc2ccc(Br)cc2)nc2sccn12`: the fold increase in Dox EC50 was 0.99 (inactive) and the EC50 was determined as 5.37 µM.

`CCOC(=O)c1cc(-c2ccccc2)sc1NC(=O)C(C)Sc1nnc(N)s1` (stereo not given): the fold increase in Dox EC50 was 0.73 (inactive) and the EC50 was found to be 3.92 µM.

Regarding `CNC(=S)Nc1ccc(C)cc1`, the fold increase in Dox EC50 was 0.67 (inactive) and the EC50 amounted to 3.64 µM.

In the case of `O=C1OC(Nc2ccccn2)c2ccccc21` (stereo not given), the fold increase in Dox EC50 is 0.81 (inactive) and the EC50 was found to be 4.35 µM.

As for `Fc1ccc(-n2nnnc2-c2cnc(-c3cccs3)nc2C(F)(F)F)cc1`, the fold increase in Dox EC50 was 0.6 (inactive) and the EC50 came out at 3.24 µM.

With `CCC(C)Nc1ncnc2c1cnn2Cc1ccc(Cl)cc1` (stereo not given), the fold increase in Dox EC50 was 0.84 (inactive) and the EC50 stood at 4.55 µM.

Regarding `COc1ccc(N2CCN(c3oc(COc4ccc(Cl)cc4)nc3C#N)CC2)cc1`, the fold increase in Dox EC50 was 1.64 and the EC50 is 8.88 µM.
